# Laboratory results reported in ChEMBL document CHEMBL4334476 (J Med Chem, 2019).
# Key:
# Arginase-1 = biological target: T1, Arginase-1 (Homo sapiens, UniProt P05089); assay: Inhibition of human recombinant arginase 1 expressed in Escherichia coli BL21 (DE3) assessed as reduction in urea production using L-arginine as substrate in presence of MnSO4 incubated for 60 mins by o-phthaldialdehyde/N-(1-naphthyl)ethylene-diamine dihydrochloride reagent based colorimetric assay
# T1 sequence (P05089 whole entry): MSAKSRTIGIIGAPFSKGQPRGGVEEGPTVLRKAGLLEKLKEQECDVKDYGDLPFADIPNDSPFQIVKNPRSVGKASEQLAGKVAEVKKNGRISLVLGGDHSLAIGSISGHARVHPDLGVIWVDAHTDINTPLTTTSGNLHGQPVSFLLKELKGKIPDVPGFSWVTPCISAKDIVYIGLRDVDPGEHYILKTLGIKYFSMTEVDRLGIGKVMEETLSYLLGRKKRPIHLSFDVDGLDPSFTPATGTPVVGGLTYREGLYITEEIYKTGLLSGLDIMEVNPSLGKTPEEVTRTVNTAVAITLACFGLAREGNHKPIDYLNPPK
# [1] = Inhibition of human recombinant arginase 2 H331 to I354 deletion mutant expressed in Escherichia coli BL21 (DE3) assessed as reduction in urea production using L-arginine as substrate in presence of MnSO4 incubated for 60 mins by colorimetric assay
# Homo sapiens = organism: Homo sapiens; assay: Selectivity ratio of IC50 for human recombinant arginase 2 H331 to I354 deletion mutant expressed in Escherichia coli BL21 (DE3) to IC50 for human recombinant arginase 1 expressed in Escherichia coli BL21 (DE3)
# [2] = biological target: T2, Arginase-1 (Homo sapiens) (UniProt P05089); assay: Potency index, ratio of ABH IC50 to test compound IC50 for human recombinant arginase 1 expressed in Escherichia coli BL21 (DE3)
# T2 sequence (whole entry): T1 sequence (P05089 whole entry)
SMILES,IC50 (Arginase-1; read-out: IC50),IC50 ([1]; read-out: IC50),Ratio IC50 (Homo sapiens),IC50 (Arginase-1),IC50 [1],Ratio IC50 [2]
N[C@@]1(C(=O)O)CN(Cc2ccncc2)C[C@@H]1CCCB(O)O,600 nM,1860 nM,3 to 5,–,–,–
N=C(NO)NCC[C@H](N)C(=O)O [NOR-NOHA],–,1260 nM,–,–,–,–
N[C@@]1(C(=O)O)CCC[C@@H]1CCCB(O)O,210 nM,630 nM,3 to 5,–,–,–
N[C@@]1(C(=O)O)CN(C[C@@H]2CCCN2)C[C@@H]1CCCB(O)O,11 nM,47 nM,3 to 5,–,–,–
N[C@@]1(C(=O)O)CN(C[C@H]2CCCN2)C[C@@H]1CCCB(O)O,10 nM,37 nM,3 to 5,–,–,–
NC1(C(=O)O)CCCC1CCCB(O)O (racemic; 8) [listing 1 of 2 here],–,–,3 to 5,–,–,–
N[C@@]1(C(=O)O)CN(Cc2cccc(F)n2)C[C@@H]1CCCB(O)O,670 nM,2160 nM,3 to 5,–,–,–
NC1(C(=O)O)CCCC1CCCB(O)O (racemic; 9),48000 nM,79200 nM,–,–,–,–
N[C@@]1(C(=O)O)CN(Cc2cccnc2)C[C@@H]1CCCB(O)O,470 nM,1370 nM,3 to 5,–,–,–
N[C@H](Cc1ccccc1)CN1C[C@H](CCCB(O)O)[C@](N)(C(=O)O)C1,10 nM,27 nM,3 to 5,–,–,–
N[C@@H](CCCCB(O)O)C(=O)O,1550 nM,2550 nM,3 to 5,–,–,–
Cc1nn(C)c(C)c1CN1C[C@H](CCCB(O)O)[C@](N)(C(=O)O)C1,340 nM,2230 nM,3 to 5,–,–,–
N[C@@]1(C(=O)O)CN(Cc2ccccc2)C[C@@H]1CCCB(O)O,300 nM,1540 nM,3 to 5,–,–,–
N[C@@]1(C(=O)O)CNC[C@@H]1CCCB(O)O,110 nM,440 nM,3 to 5,–,–,–
Cn1ccnc1CN1C[C@H](CCCB(O)O)[C@](N)(C(=O)O)C1,100 nM,330 nM,3 to 5,–,–,–
N[C@]1(C(=O)O)CCC[C@H]1CCCB(O)O,–,–,–,Not Active,Not Active,–
N[C@@]1(C(=O)O)CN(Cc2ccccn2)C[C@@H]1CCCB(O)O,380 nM,1270 nM,3 to 5,–,–,–
N[C@@]1(C(=O)O)CN(C[C@@H]2CCCCN2)C[C@@H]1CCCB(O)O,30 nM,95 nM,3 to 5,–,–,–
N[C@@H](Cc1ccccc1)CN1C[C@H](CCCB(O)O)[C@](N)(C(=O)O)C1,1.3 nM,8.1 nM,3 to 5,–,–,1190
N[C@@]1(C(=O)O)CN(Cc2cncs2)C[C@@H]1CCCB(O)O,360 nM,850 nM,3 to 5,–,–,–
C[C@H](N)CN1C[C@H](CCCB(O)O)[C@](N)(C(=O)O)C1,7.7 nM,16 nM,2 to 5,–,–,–
N[C@@]1(C(=O)O)CN(C[C@H]2COCCN2)C[C@@H]1CCCB(O)O,19 nM,65 nM,3 to 5,–,–,–
N[C@@]1(C(=O)O)CN(C[C@@H]2COCCN2)C[C@@H]1CCCB(O)O,10 nM,27 nM,3 to 5,–,–,–
N[C@@H](CN1C[C@H](CCCB(O)O)[C@](N)(C(=O)O)C1)c1ccccc1,18 nM,62 nM,3 to 5,–,–,–
CC(C)CN1C[C@H](CCCB(O)O)[C@](N)(C(=O)O)C1,390 nM,1610 nM,3 to 5,–,–,–
NC1(C(=O)O)CCCC1CCCB(O)O (racemic; 8) [listing 2 of 2 here],380 nM,1280 nM,–,–,–,–
Cc1[nH]ncc1CN1C[C@H](CCCB(O)O)[C@](N)(C(=O)O)C1,400 nM,2180 nM,3 to 5,–,–,–
C[C@@H](N)CN1C[C@H](CCCB(O)O)[C@](N)(C(=O)O)C1,16 nM,37 nM,3 to 5,–,–,–
N[C@H](CN1C[C@H](CCCB(O)O)[C@](N)(C(=O)O)C1)c1ccccc1,2.5 nM,9.5 nM,3 to 5,–,–,–
N[C@@]1(C(=O)O)CN(C[C@H]2CCCCN2)C[C@@H]1CCCB(O)O,2.6 nM,14 nM,3 to 5,–,–,–
